Results taken from patent publication US7754856B2, “Human sodium-dependent bile acid transporter proteins” (Takeda Pharmaceutical Company Limited, priority 2002, dated 2010).

Target: T1, human TCH230 (Homo sapiens, UniProt Q3KNW5)
T1 construct: expressed in transfected cells
T1 sequence (Q3KNW5 1-377): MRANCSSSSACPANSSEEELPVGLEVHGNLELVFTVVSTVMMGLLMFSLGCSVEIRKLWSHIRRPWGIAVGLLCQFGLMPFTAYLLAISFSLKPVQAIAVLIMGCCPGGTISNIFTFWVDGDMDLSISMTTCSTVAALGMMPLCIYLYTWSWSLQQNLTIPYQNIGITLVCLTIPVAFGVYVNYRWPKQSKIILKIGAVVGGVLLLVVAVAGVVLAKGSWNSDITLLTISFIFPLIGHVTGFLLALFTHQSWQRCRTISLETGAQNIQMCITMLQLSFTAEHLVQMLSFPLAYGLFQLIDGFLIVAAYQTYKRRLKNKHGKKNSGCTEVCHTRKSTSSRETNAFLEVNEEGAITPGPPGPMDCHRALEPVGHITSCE
Experiment: Incorporation of labeled steroid sulfates into human TCH230-expressing CHO cell strain
Type: cell-based
Details: for incorporation into human TCH230 expressing CHO cells (radioactivity): CHO clone No. 19-6, in the presence of 140 mM NaCl (NaCl buffer vs NMDG buffer, vs Mock cells), 37° C., 1 hour, values only in FIG. 17/18; for substrate of the novel sodium-dependent bile acid transporter protein: summary statement in disclosure
Experimental: Incorporation of [6,7-^3H(N)]-estrone sulfate and [1,2,6,7-^3H(N)]-dehydroepiandrosterone sulfate (hereinafter also referred to as [1,2,6,7-^3H(N)]-DHEA-S) into the human TCH230 (SEQ ID NO:1)-expressing CHO cell strain clone No. 19-6 obtained in Example 19 was measured.
The human TCH230 (SEQ ID NO:1) expressing CHO cell strain clone No. 19-6 was inoculated at a density of 4×10^4 cells/well in a 96 well plate, and cultured at 37° C. for 24 hours in MEMα medium (Invitrogen, Inc.) containing 5 mM sodium butyrate. The medium was removed, and the cells were washed 3 times with 150 μL NMDG buffer (140 mM N-methyl-D(−)-glucamine, 5.4 mM KCl, 0.34 mM Na2HPO4, 0.44 mM KH2PO4, 1.26 mM CaCl2, 0.41 mM MgSO4, 0.49 mM MgCl2, 5.55 mM glucose, pH 7.4-7.6), and incubated in 150 μL NMDG buffer at 37° C. for 1 hour. The buffer was replaced with 90 μL NaCl buffer (140 mM NaCl, 5.4 mM KCl, 0.34 mM Na2HPO4, 0.44 mM KH2PO4, 1.26 mM CaCl2, 0.41 mM MgSO4, 0.49 mM MgCl2, 5.55 mM glucose, pH 7.4-7.6) or 90 μL NMDG buffer, followed by adding 10 μL of 2.5 μM estrone sulfate, ammonium salt, [6,7-^3H(N)]— or 1.37 μM dehydroepiandrosterone sulfate, sodium salt, [1,2,6,7-^3H(N)]— (all of which are available from Perkin-Elmer Life Science). The cells were incubated at 37° C. for 1 hour, and the buffer was removed, then washed 3 times with 200 μL PBS (Takara Bio) and lysed with 10 μL of 0.1N NaOH. 100 μL SuperMix scintillator (Perkin-Elmer Life Science) was added thereto and stirred, and the amount of [6,7-^3H(N)]-estrone sulfate or [1,2,6,7-^3H(N)]-DHEA-S incorporated into the cells was measured in terms of radioactivity. This measurement was carried out with 1450 MICROBETA PLUS LIQUID SCINTILLATION COUNTER (Perkin-Elmer Life Science). CHO dhfr− cells into which vector pcDNA3.1(+) had been introduced (also referred to hereinafter as Mock) was also subjected to the same procedure and measured for radioactivity.

Substance: [1,2,6,7-^3H(N)]-dehydroepiandrosterone sulfate [[1,2,6,7-^3H(N)]-DHEA-S]
- incorporation into human TCH230 expressing CHO cells (radioactivity): incorporate
- substrate of the novel sodium-dependent bile acid transporter protein: substrate

Substance: [6,7-^3H(N)]-estrone sulfate
- incorporation into human TCH230 expressing CHO cells (radioactivity): incorporate
- substrate of the novel sodium-dependent bile acid transporter protein: substrate
